Data reported in patent US20240327417A1, “HETEROCYCLIC COMPOUNDS” (BeiGene Switzerland GmbH, priority 2021, published 2024).
pIC50: −log10 of the molar value.

Tests used:
[1] = biological target: T1, Full length DGKζ (in-house protein M1-V929) (Homo sapiens, UniProt Q13574); assay: Biochemical DGK IC50 assay (ADP-Glo, lipid micelle substrate), DGKζ; conditions: 0.5 nM enzyme, 140 μM ATP, 80 μM DAG, 1 hour preincubation, 1 hour reaction, room temperature, read-out: IC50s for DGKζ
T1 construct: His (N); TEV cleavage site (N); made in house; host or cells: Sf9 insect cells (baculovirus, Bac-to-Bac)
In short: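 In-house full-length human DGKζ, baculovirus-expressed in Sf9 cells, was assayed with a DAG/PS lipid micelle substrate at room temperature. Buffer was 50 mM HEPES, 10 mM MgCl2, 0.01% BSA, 0.1 mM Na3VO4, 0.005% Tween-20, 0.01 mM CaCl2, with final compound 1.55˜10000 nM or 23.3˜150000 nM.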

[2] = biological target: T2, Full length DGKα (D21-10BG, SignalChem) (Homo sapiens, UniProt P23743); assay: Biochemical DGK IC50 assay (ADP-Glo, lipid micelle substrate), DGKα; conditions: 7.5 nM enzyme, 140 μM ATP, 80 μM DAG, 1 hour preincubation, 1 hour reaction, room temperature, read-out: IC50s for DGKα
T2 construct: Full length DGKα (D21-10BG, SignalChem); purchased SignalChem D21-10BG
In short: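 Full-length enzyme was assayed by ADP-Glo on DAG/PS lipid micelles at room temperature in HEPES/MgCl2/CaCl2 buffer with BSA, Na3VO4 and Tween-20, using a 1 h reaction and luminescence read-out.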

T1 sequence (Q13574 1-929 isoform Q13574-4): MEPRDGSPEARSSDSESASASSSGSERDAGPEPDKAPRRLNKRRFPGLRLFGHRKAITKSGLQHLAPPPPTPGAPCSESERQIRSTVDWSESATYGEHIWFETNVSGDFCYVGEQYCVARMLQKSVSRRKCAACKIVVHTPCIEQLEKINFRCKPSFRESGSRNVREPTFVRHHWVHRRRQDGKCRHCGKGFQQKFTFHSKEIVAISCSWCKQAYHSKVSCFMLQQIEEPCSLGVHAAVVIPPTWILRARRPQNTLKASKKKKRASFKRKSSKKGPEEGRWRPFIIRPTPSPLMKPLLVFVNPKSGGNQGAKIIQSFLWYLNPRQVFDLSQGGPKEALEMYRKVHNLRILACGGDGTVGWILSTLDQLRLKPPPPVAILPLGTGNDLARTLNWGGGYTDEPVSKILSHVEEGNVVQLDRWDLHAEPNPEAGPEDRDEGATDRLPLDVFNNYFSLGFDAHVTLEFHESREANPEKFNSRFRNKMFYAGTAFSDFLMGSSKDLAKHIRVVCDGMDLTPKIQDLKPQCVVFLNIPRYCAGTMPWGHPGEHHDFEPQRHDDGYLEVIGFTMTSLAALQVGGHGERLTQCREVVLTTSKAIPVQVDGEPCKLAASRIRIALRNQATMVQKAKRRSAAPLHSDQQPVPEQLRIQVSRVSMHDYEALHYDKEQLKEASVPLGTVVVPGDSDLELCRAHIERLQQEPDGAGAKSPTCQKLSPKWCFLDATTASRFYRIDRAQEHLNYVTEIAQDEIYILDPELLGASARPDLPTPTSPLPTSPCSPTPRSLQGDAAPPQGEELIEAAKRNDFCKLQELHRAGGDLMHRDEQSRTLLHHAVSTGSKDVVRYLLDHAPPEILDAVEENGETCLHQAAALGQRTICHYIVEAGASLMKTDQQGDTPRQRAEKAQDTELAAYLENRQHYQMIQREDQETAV
T2 sequence (P23743 whole entry): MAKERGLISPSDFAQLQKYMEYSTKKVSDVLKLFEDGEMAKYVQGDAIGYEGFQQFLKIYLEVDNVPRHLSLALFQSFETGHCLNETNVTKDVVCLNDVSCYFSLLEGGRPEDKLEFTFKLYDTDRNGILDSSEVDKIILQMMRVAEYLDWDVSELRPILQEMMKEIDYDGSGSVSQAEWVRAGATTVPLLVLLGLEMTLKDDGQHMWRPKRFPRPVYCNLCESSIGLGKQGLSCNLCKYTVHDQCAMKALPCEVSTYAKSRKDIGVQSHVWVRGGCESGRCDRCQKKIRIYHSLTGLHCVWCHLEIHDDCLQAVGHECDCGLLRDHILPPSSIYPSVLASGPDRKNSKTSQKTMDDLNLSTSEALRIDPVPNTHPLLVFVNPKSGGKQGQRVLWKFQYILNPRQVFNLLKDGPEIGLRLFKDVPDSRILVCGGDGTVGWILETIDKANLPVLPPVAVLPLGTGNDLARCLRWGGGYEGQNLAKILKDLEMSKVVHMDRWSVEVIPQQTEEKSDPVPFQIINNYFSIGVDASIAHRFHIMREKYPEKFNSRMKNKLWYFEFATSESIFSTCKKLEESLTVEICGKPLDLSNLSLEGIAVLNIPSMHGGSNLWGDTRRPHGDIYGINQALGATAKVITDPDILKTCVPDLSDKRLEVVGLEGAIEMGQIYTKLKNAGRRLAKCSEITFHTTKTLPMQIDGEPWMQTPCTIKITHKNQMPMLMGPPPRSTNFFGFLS

SMILES | pIC50 [1] | pIC50 [2]
CC(c1ccc2c(c1)OC(C)(C)CO2)N1C[C@H](C)N(c2c(C#N)c(=O)n(C)n3cc(CC#N)nc23)C[C@H]1C (mixture of isomers) [Compound A27, 2-(cyanomethyl)-8-((2S,5R)-4-(1-(3,3-dimethyl-2,3-dihydrobenzo[b][1,4]dioxin-6-yl)ethyl)-2,5-dimethylpiperazin-1-yl)-5-methyl-6-oxo-5,6-dihydroimidazo[1,2-b]pyridazine-7-carbonitrile] | 8.00 | 6.07
CC(c1ccc2c(c1)OC(C)(C)CO2)N1C[C@H](C)N(c2c(F)c(=O)n(C)n3cc(CC#N)nc23)C[C@H]1C (single isomer, unassigned) [Compound A26b] | 5.67 | 5.68
CC[C@H]1CN(C(C)c2ccc(OC(C)C)cc2)[C@H](CC)CN1c1cc(=O)n(C)n2cc(CC#N)nc12 (stereo partly drawn) [Compound A51, 2-(8-((2S,5R)-2,5-diethyl-4-(1-(4-isopropoxyphenyl)ethyl)piperazin-1-yl)-5-methyl-6-oxo-5,6-dihydroimidazo[1,2-b]pyridazin-2-yl)acetonitrile] | 6.55 | 7.05
CC[C@H]1CN(C(C)c2ccc(C3CC3)nc2)[C@H](CC)CN1c1c(F)c(=O)n(C)n2cc(CC#N)nc12 (single isomer, unassigned) [Compound A73a] | 7.11 | 6.75
CC[C@H]1CN(C(C)c2ccc3nc(C)sc3n2)[C@H](CC)CN1c1c(F)c(=O)n(C)n2cc(CC#N)nc12 (single isomer, unassigned) [Compound A82b] | 5.98 | 6.63
CC[C@H]1CN(C(C)c2ccc3c(c2)OCO3)[C@H](CC)CN1c1cc(=O)n(C)n2cc(CC#N)nc12 (stereo partly drawn) [Compound A71, 2-(8-((2S,5R)-4-(1-(benzo[d][1,3]dioxol-5-yl)ethyl)-2,5-diethylpiperazin-1-yl)-5-methyl-6-oxo-5,6-dihydroimidazo[1,2-b]pyridazin-2-yl)acetonitrile] | 7.21 | 7.18
CC[C@H]1CN(C(C)c2ccc3nc(C)sc3n2)[C@H](CC)CN1c1cc(=O)n(C)n2cc(CC#N)nc12 (single isomer, unassigned) [Compound A58b] | 8.14 | 7.88
CC(c1ccc2c(c1)OCCO2)N1C[C@H](C)N(c2cc(=O)n(C)n3cc(CC#N)nc23)C[C@H]1C (stereo partly drawn) [Compound A24, 2-(8-((2S,5R)-4-(1-(2,3-dihydrobenzo[b][1,4]dioxin-6-yl)ethyl)-2,5-dimethylpiperazin-1-yl)-5-methyl-6-oxo-5,6-dihydroimidazo[1,2-b]pyridazin-2-yl)acetonitrile] | 6.64 | 5.54
CCC(c1ccc(C2CC2)nc1)N1C[C@H](CC)N(c2cc(=O)n(C)n3cc(CC#N)nc23)C[C@H]1CC (single isomer, unassigned) [Compound A89a] | 7.14 | 6.77
CC[C@@H]1CN(c2cc(=O)n(C)n3cc(C=NOC)nc23)[C@@H](C)CN1C(C)c1ccc2nccnc2c1 (single isomer, unassigned) [Compound A9a] | 5.50 | 6.13
CC#CCc1cn2c(n1)c(N1C[C@@H](CC)N(C(C)c3ccc4nc(C)sc4c3)C[C@@H]1C)cc(=O)n2C (stereo partly drawn) [Compound A69, 2-(but-2-yn-1-yl)-8-((2S,5R)-5-ethyl-2-methyl-4-(1-(2-methylbenzo[d]thiazol-6-yl)ethyl)piperazin-1-yl)-5-methylimidazo[1,2-b]pyridazin-6(5H)-one] | 5.84 | 6.58
CC[C@H]1CN(C(C)c2ccc3nc(C)sc3c2)[C@H](CC)CN1c1cc(=O)n(C)n2cc(CC#N)nc12 (single isomer, unassigned) [Compound A56b] | 6.20 | 6.18
CC[C@@H]1CN(c2cc(=O)n(C)n3cc(CC#N)nc23)[C@@H](C)CN1C(C)c1ccc2cc(C)sc2n1 (stereo partly drawn) [Compound A87, 2-(8-((2S,5R)-5-ethyl-2-methyl-4-(1-(2-methylthieno[2,3-b]pyridin-6-yl)ethyl)piperazin-1-yl)-5-methyl-6-oxo-5,6-dihydroimidazo[1,2-b]pyridazin-2-yl)acetonitrile] | 7.96 | 6.95
CC(c1ccc2nccnc2c1)N1C[C@H](C)N(c2cc(=O)n(C)n3cc(CS(C)(=O)=O)nc23)C[C@H]1C (stereo partly drawn) [Compound A11, 8-((2S,5R)-2,5-dimethyl-4-(1-(quinoxalin-6-yl)ethyl)piperazin-1-yl)-5-methyl-2-((methylsulfonyl)methyl)imidazo[1,2-b]pyridazin-6(5H)-one] | < 5.00 | < 5.00
CC[C@@H]1CN(c2cc(=O)n(C)n3cc(CC#N)nc23)[C@@H](C)CN1C(C)c1ccc(C(F)(F)F)cc1F (single isomer, unassigned) [Compound A17b] | 5.33 | 6.08
CC[C@@H]1CN(c2cc(=O)n(C)n3cc(CC#N)nc23)[C@@H](C)CN1C(C)c1ccc2nccnc2c1 (single isomer, unassigned) [Compound A13b] | 5.44 | 5.38
CC[C@@H]1CN(c2cc(=O)n(C)n3cc(CC#N)nc23)[C@@H](C)CN1C(C)c1ccc2nc(C)sc2c1F (single isomer, unassigned) [Compound A63a] | 8.22 | 6.17
Cc1cnc2ccc(C(C)N3C[C@H](C)N(c4c(C#N)c(=O)n(C)n5cc(CC#N)nc45)C[C@H]3C)cc2n1 (stereo partly drawn) [Compound A23, 2-(cyanomethyl)-8-((2S,5R)-2,5-dimethyl-4-(1-(3-methylquinoxalin-6-yl)ethyl)piperazin-1-yl)-5-methyl-6-oxo-5,6-dihydroimidazo[1,2-b]pyridazine-7-carbonitrile] | 7.41 | 5.64

Further lines, results first:

pIC50 [1] | pIC50 [2] | SMILES
7.02 | 7.59 | CC[C@@H]1CN(c2cc(=O)n(C)n3cc(CC#N)nc23)[C@@H](C)CN1C(C)c1ccc2cc(F)sc2n1 (stereo partly drawn) [Compound A106, 2-(8-((2S,5R)-5-ethyl-4-(1-(2-fluorothieno[2,3-b]pyridin-6-yl)ethyl)-2-methylpiperazin-1-yl)-5-methyl-6-oxo-5,6-dihydroimidazo[1,2-b]pyridazin-2-yl)acetonitrile]
6.15 | 6.71 | CC[C@H]1CN(C(C)c2ccc3cc(F)sc3n2)[C@H](CC)CN1c1cc(=O)n(C)n2cc(CC#N)nc12 (single isomer, unassigned) [Compound A105a]
5.84 | 5.69 | CC[C@H]1CN(C(C)c2ccc3nc(C)sc3c2F)[C@H](C)CN1c1cc(=O)n(C)n2cc(CC#N)nc12 (single isomer, unassigned) [Compound A119a]
6.84 | 7.30 | CC[C@H]1CN(C(C)c2ccc3nc(C)sc3n2)[C@H](C)CN1c1cc(=O)n(C)n2cc(CC#N)nc12 (single isomer, unassigned) [Compound A121b]
6.04 | 5.97 | CCc1nc2ccc(C(C)N3C[C@H](CC)N(c4cc(=O)n(C)n5cc(CC#N)nc45)C[C@H]3CC)cc2s1 (single isomer, unassigned) [Compound A100b]
7.32 | 7.66 | CC#CCc1cn2c(n1)c(N1C[C@@H](CC)N(C(C)c3ccc4ncsc4c3F)C[C@@H]1CC)cc(=O)n2C (single isomer, unassigned) [Compound A117a]
6.93 | 7.22 | CC[C@H]1CN(C(C)c2ccc3nc(C)sc3n2)[C@H](CC)CN1c1c(C#N)c(=O)n(C)n2cc(CC#N)nc12 (single isomer, unassigned) [Compound A112b]
6.86 | 6.15 | CC[C@H]1CN(C(CCOC)c2ccc3nc(C)sc3c2)[C@H](C)CN1c1cc(=O)n(C)n2cc(CC#N)nc12 (stereo partly drawn) [Compound A103, 2-(8-((2S,5R)-2-ethyl-4-(3-methoxy-1-(2-methylbenzo[d]thiazol-6-yl)propyl)-5-methylpiperazin-1-yl)-5-methyl-6-oxo-5,6-dihydroimidazo[1,2-b]pyridazin-2-yl)acetonitrile]
7.62 | 6.97 | [2H]C([2H])([2H])n1c(=O)cc(N2C[C@@H](CC)N(C(C)c3ccc4nc(C)sc4c3)C[C@@H]2CC)c2nc(CC#N)cn21 (single isomer, unassigned) [Compound A94a]
5.54 | 6.19 | CC[C@@H]1CN(c2c(C#N)c(=O)n(C)n3cc(CC#N)nc23)[C@@H](C)CN1C(C)c1ccc2nc(C)sc2n1 (single isomer, unassigned) [Compound A113b]
7.48 | 7.27 | [2H]C([2H])([2H])c1nc2ccc(C(C)N3C[C@H](CC)N(c4cc(=O)n(C)n5cc(CC#N)nc45)C[C@H]3CC)cc2s1 (single isomer, unassigned) [Compound A96a]
5.94 | 5.94 | [2H]C([2H])([2H])c1nc2ccc(C(C)N3C[C@H](CC)N(c4cc(=O)n(C([2H])([2H])[2H])n5cc(CC#N)nc45)C[C@H]3CC)cc2s1 (single isomer, unassigned) [Compound A97b]
7.35 | 7.41 | CCC(c1ccc2nc(C)sc2n1)N1C[C@H](CC)N(c2cc(=O)n(C)n3cc(CC#N)nc23)C[C@H]1C (single isomer, unassigned) [Compound A98b]
7.34 | 6.42 | CC[C@H]1CN(C(CCOC)c2ccc3nc(C)sc3c2)[C@H](CC)CN1c1cc(=O)n(C)n2cc(CC#N)nc12 (single isomer, unassigned) [Compound A102a]
